Test results as given in ChEMBL document CHEMBL2407088, “Frenolicins C-G, pyranonaphthoquinones from Streptomyces sp. RM-4-15” (J Nat Prod, 2013).

These molecules were tested on A549 (assay: Cytotoxicity against human A549 cells after 2 days by resazurin reduction assay). Conditions: A549, 48 h.
`CCC[C@H]1O[C@H](CC(=O)O)C[C@]2(SC[C@H](NC(C)=O)C(=O)O)C(=O)c3cccc(O)c3C(=O)[C@@]12O` gave an IC50 of over 80 µM. In the case of `CCC[C@H]1O[C@H](CC(=O)O)C[C@]2(O)C(=O)c3cccc(O)c3C(=O)[C@@]12O`, the IC50 is reported as over 80 µM. `CCC[C@H]1O[C@@H]2CC(=O)O[C@@H]2C2=C1C(=O)c1c(O)cccc1C2=O` [FRENOLICIN B] gave an IC50 of 0.28 µM. In the case of `CCC[C@H]1O[C@H](CC(=O)O)C[C@@H]2C(=O)c3cccc(O)c3C(=O)[C@]21O`, the IC50 is reported as over 80 µM. `CCC[C@H]1O[C@H](CC(=O)O)C[C@@]2(O)C(=O)c3cccc(O)c3C(=O)[C@@]12O` was tested, and the IC50 was over 80 µM. Molecule `CCC[C@H]1O[C@H](CC(=O)OC)[C@H](O)C2=C1C(=O)c1c(O)cccc1C2=O` has an IC50 of 0.35 µM. `CCC[C@H]1O[C@H](CC(=O)O)C[C@]23O[C@]12C(=O)c1c(O)cccc1C3=O` [FRENOLICIN] gave an IC50 of 5.77 µM. `CCC[C@H]1O[C@H](CC(=O)O)C[C@]23O[C@]12C(=O)c1c(O)cccc1[C@@H]3O` gave an IC50 of over 80 µM. `CCC[C@H]1O[C@H](CC(=O)O)CC2=C1C(=O)c1c(O)cccc1C2=O` [DEOXYFRENOLICIN] gave an IC50 of 1.07 µM.
